These results are taken from US9890124B2, “Benzazepine sulfonamide compounds” (Hoffmann-La Roche Inc., priority 2015, dated 2018).

One assay concerns the target human TLR8 (Homo sapiens (Human), UniProt Q9NR97). The experiment in a line: HEK-Blue human TLR8 cells NF-κB SEAP reporter assay. In kind it is cell-based. The settings on record: stimulation for 20 hours. The source says:
(§1) For TLR8 and TLR7 activity testing, HEK-Blue human TLR8 or TLR7 cells (Invivogen, San Diego, Calif., USA) are used, respectively. These cells are designed for studying the stimulation of human TLR8 or TLR7 by monitoring the activation of NF-κB. A SEAP (secreted embryonic alkaline phosphatase) reporter gene is placed under the control of the IFN-b minimal promoter fused to five NF-κB and AP-1-binding sites. Therefore the reporter expression is regulated by the NF-κB promoter upon stimulation of human TLR8 or TLR7 for 20 hours. The cell culture supernatant SEAP reporter activity was determined using Quanti Blue kit (Invivogen, San Diego, Calif., USA) at a wavelength of 640 nm, a detection medium that turns purple/blue in the presence of alkaline phosphatase. EC50 values were determined using Activity Base analysis (ID Business Solution, Limited).
(Reporter assays use an easily measured gene product as a stand-in for the process of interest.)

A further assay has as its target human TLR7 (Homo sapiens (Human), UniProt Q9NYK1). The experiment in a line: HEK-Blue human TLR7 cells NF-κB SEAP reporter assay. The settings on record: stimulation for 20 hours. Type of assay: cell-based.
Source text: as §1

Sequence of human TLR8 (Q9NR97 27-1041): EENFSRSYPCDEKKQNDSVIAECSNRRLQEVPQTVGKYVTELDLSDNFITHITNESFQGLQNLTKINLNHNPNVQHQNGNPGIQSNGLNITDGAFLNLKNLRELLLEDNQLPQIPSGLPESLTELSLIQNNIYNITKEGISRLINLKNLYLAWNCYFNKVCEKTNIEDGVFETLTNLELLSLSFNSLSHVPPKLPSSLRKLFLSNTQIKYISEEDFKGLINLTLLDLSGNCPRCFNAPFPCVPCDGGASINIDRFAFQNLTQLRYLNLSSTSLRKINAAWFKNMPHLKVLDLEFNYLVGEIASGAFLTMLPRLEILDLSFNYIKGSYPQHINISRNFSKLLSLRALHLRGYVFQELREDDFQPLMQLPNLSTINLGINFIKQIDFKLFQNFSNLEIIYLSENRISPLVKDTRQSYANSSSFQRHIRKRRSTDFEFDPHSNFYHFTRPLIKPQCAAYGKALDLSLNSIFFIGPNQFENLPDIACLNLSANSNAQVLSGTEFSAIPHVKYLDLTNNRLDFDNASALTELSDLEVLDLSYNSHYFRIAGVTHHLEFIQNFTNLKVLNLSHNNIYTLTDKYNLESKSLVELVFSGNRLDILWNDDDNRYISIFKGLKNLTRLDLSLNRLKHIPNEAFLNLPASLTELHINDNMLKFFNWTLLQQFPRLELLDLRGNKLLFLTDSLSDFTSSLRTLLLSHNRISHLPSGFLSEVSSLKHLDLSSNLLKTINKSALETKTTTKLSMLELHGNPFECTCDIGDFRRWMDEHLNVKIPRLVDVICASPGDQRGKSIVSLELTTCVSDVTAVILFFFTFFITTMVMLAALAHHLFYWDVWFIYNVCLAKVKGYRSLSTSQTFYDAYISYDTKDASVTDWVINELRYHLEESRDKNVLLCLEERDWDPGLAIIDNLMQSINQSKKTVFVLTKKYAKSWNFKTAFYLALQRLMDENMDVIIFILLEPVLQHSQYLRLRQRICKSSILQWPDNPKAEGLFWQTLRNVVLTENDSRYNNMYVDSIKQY
Sequence of human TLR7 (Q9NYK1 27-1049): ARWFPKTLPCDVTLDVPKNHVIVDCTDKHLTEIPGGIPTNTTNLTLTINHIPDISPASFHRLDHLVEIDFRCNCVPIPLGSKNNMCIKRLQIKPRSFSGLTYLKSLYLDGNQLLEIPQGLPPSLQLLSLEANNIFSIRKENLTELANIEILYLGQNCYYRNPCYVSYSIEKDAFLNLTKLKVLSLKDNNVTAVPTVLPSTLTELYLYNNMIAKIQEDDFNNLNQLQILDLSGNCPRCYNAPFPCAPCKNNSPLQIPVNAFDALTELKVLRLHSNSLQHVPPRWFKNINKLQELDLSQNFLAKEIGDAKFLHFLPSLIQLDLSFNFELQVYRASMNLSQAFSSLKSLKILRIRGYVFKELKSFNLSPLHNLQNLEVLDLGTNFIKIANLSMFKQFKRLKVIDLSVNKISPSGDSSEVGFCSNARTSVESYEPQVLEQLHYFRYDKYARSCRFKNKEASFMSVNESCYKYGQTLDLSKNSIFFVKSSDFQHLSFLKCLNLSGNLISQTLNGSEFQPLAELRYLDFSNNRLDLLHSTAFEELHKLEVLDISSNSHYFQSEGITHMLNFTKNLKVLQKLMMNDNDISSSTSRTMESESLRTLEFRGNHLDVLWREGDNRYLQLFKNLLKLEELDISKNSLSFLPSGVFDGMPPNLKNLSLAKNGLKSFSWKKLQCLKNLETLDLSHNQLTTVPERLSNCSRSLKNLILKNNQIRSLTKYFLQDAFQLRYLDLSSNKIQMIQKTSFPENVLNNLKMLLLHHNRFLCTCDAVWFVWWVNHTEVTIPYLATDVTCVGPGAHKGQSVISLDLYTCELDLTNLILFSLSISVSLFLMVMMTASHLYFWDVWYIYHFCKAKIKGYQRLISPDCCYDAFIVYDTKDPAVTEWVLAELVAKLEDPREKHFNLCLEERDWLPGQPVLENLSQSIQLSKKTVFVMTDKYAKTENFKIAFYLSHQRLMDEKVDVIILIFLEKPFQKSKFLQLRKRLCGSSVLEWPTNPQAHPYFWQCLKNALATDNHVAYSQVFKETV

In general, EC50 refers to the concentration that produces a half-maximal response. Lower therefore signals higher potency in that assay. Consider `CCCN(CCC)C(=O)C1=Cc2ccc(-c3cccc(S(N)(=O)=O)c3)cc2N=C(N)C1` [Example 1, 2-Amino-N,N-dipropyl-8-(3-sulfamoylphenyl)-3H-1-benzazepine-4-carboxamide], for which the EC50 on human TLR8 worked out at 0.006 µM; at human TLR7 it was 3 µM.

Take `CCCN(CCC)C(=O)C1=Cc2ccc(-c3cccc(S(=O)(=O)NCCO)c3)cc2N=C(N)C1` [Example 2, 2-Amino-8-[3-(2-hydroxyethylsulfamoyl)phenyl]-N,N-dipropyl-3H-1-benzazepine-4-carboxamide]: the EC50 at human TLR8 came out at 0.006 µM; at human TLR7 it was 7 µM.

Consider `CCCN(CCC)C(=O)C1=Cc2ccc(-c3cccc(S(=O)(=O)N4CCCC4)c3)cc2N=C(N)C1` [Example 3, 2-amino-N,N-dipropyl-8-(3-pyrrolidin-1-ylsulfonylphenyl)-3H-1-benzazepine-4-carboxamide], for which the values for the 50% effective concentration (EC50) on human TLR8 and on human TLR7 were 0.006 µM and > 100 µM, respectively.

In the case of `CCCN(CCC)C(=O)C1=Cc2ccc(-c3cncc(S(N)(=O)=O)c3)cc2N=C(N)C1` [Example 4, 2-Amino-N,N-dipropyl-8-(5-sulfamoyl-3-pyridyl)-3H-1-benzazepine-4-carboxamide], the half-maximal effective concentration (EC50) on human TLR8 was 0.023 µM; at human TLR7, 5 µM.

On to `CCCN(CCC)C(=O)C1=Cc2ccc(-c3cccc(S(=O)(=O)N4CCC(O)C4)c3)cc2N=C(N)C1` (stereo not shown) [Example 5, 2-Amino-8-[3-(3-hydroxypyrrolidin-1-yl)sulfonylphenyl]-N,N-dipropyl-3H-1-benzazepine-4-carboxamide], for which the EC50 turned out to be 0.003 µM at human TLR8 and 103 µM on human TLR7.

Take `CCCN(CCC)C(=O)C1=Cc2ccc(-c3ccc(S(=O)(=O)N4CCC(O)C4)cc3)cc2N=C(N)C1` (stereo not shown) [Example 6, 2-Amino-8-[4-(3-hydroxypyrrolidin-1-yl)sulfonylphenyl]-N,N-dipropyl-3H-1-benzazepine-4-carboxamide]: the EC50 was 0.01 µM on human TLR8 and 104 µM at human TLR7.

Take `CCCN(CCC)C(=O)C1=Cc2ccc(-c3cccc(S(=O)(=O)N4CC[C@@H](O)C4)c3)cc2N=C(N)C1` [Example 7, 2-Amino-8-[3-[(3R)-3-hydroxypyrrolidin-1-yl]sulfonylphenyl]-N,N-dipropyl-3H-1-benzazepine-4-carboxamide]: the values for the EC50 at human TLR8 and at human TLR7 were 0.005 µM and 18 µM, respectively.

Regarding `CCCN(CCC)C(=O)C1=Cc2ccc(-c3cccc(S(=O)(=O)N4CC[C@H](O)C4)c3)cc2N=C(N)C1` [Example 8, 2-Amino-8-[3-[(3S)-3-hydroxypyrrolidin-1-yl]sulfonylphenyl]-N,N-dipropyl-3H-1-benzazepine-4-carboxamide], the values for the EC50 at human TLR8 and on human TLR7 were 0.005 µM and 24 µM, respectively.

With `CCCN(CCC)C(=O)C1=Cc2ccc(-c3cccc(S(=O)(=O)N4CC(O)C4)c3)cc2N=C(N)C1` [Example 9, 2-Amino-8-[3-(3-hydroxyazetidin-1-yl)sulfonylphenyl]-N,N-dipropyl-3H-1-benzazepine-4-carboxamide], the results for the EC50 at human TLR8 and on human TLR7 were 0.005 µM and 17 µM, respectively.

As to `CCCN(CCC)C(=O)C1=Cc2ccc(-c3cccc(S(=O)(=O)N(C)CCO)c3)cc2N=C(N)C1` [Example 10, 2-Amino-8-[3-[2-hydroxyethyl(methyl)sulfamoyl]phenyl]-N,N-dipropyl-3H-1-benzazepine-4-carboxamide], the EC50 at human TLR8 turned out to be 0.004 µM; at human TLR7, 20 µM.

On to `CCCN(CCC)C(=O)C1=Cc2ccc(-c3cccc(S(=O)(=O)NCCOCCO)c3)cc2N=C(N)C1` [Example 11, 2-Amino-8-[3-[2-(2-hydroxyethoxy)ethylsulfamoyl]phenyl]-N,N-dipropyl-3H-1-benzazepine-4-carboxamide], for which the 50% effective concentration (EC50) is 0.008 µM on human TLR8 and 12 µM at human TLR7.

On to `CCCN(CCC)C(=O)C1=Cc2ccc(-c3cccc(S(=O)(=O)NCCCCCCO)c3)cc2N=C(N)C1` [Example 12, 2-Amino-8-[3-(6-hydroxyhexylsulfamoyl)phenyl]-N,N-dipropyl-3H-1-benzazepine-4-carboxamide], for which the EC50 on human TLR8 turned out to be 0.008 µM; at human TLR7, 12 µM.

`CCCN(CCC)C(=O)C1=Cc2ccc(-c3cccc(S(=O)(=O)N4CCC(O)CC4)c3)cc2N=C(N)C1` [Example 13, 2-Amino-8-[3-[(4-hydroxy-1-piperidyl)sulfonyl]phenyl]-N,N-dipropyl-3H-1-benzazepine-4-carboxamide]: the EC50 came to 0.004 µM on human TLR8 and 17 µM on human TLR7.

For the molecule `CCCN(CCC)C(=O)C1=Cc2ccc(-c3cc(C(F)(F)F)cc(S(=O)(=O)N4CC[C@@H](O)C4)c3)cc2N=C(N)C1` [Example 14, 2-Amino-8-[3-[(3R)-3-hydroxypyrrolidin-1-yl]sulfonyl-5-(trifluoromethyl)phenyl]-N,N-dipropyl-3H-1-benzazepine-4-carboxamide], the EC50 was 0.009 µM on human TLR8 and > 100 µM at human TLR7.

`CCCN(CCC)C(=O)C1=Cc2ccc(-c3ccc(OC)c(S(=O)(=O)N4CC[C@@H](O)C4)c3)cc2N=C(N)C1` [Example 15, 2-Amino-8-[3-[(3R)-3-hydroxypyrrolidin-1-yl]sulfonyl-4-methoxy-phenyl]-N,N-dipropyl-3H-1-benzazepine-4-carboxamide]: the concentration for a half-maximal effect (EC50) on human TLR8 amounted to 0.004 µM; on human TLR7, 17 µM.

For the molecule `CCCN(CCC)C(=O)C1=Cc2ccc(-c3cccc(S(=O)(=O)N4CC(CO)C4)c3)cc2N=C(N)C1` [Example 16, 2-Amino-8-[3-[3-(hydroxymethyl)azetidin-1-yl]sulfonylphenyl]-N,N-dipropyl-3H-1-benzazepine-4-carboxamide], the EC50 on human TLR8 amounted to 0.002 µM; at human TLR7, 26 µM.

`CCCN(CCC)C(=O)C1=Cc2ccc(-c3cccc(S(=O)(=O)N4CCC[C@@H](O)C4)c3)cc2N=C(N)C1` [Example 17, 2-Amino-8-[3-[[(3R)-3-hydroxy-1-piperidyl]sulfonyl]phenyl]-N,N-dipropyl-3H-1-benzazepine-4-carboxamide]: the EC50 is 0.005 µM on human TLR8 and > 100 µM at human TLR7.

In the case of `CCCN(CCC)C(=O)C1=Cc2ccc(-c3cccc(S(=O)(=O)N4CCC[C@H](O)C4)c3)cc2N=C(N)C1` [Example 18, 2-Amino-8-[3-[[(3S)-3-hydroxy-1-piperidyl]sulfonyl]phenyl]-N,N-dipropyl-3H-1-benzazepine-4-carboxamide], the EC50 is 0.006 µM at human TLR8 and > 100 µM on human TLR7.

In the case of `CCCN(CCC)C(=O)C1=Cc2ccc(-c3cccc(S(=O)(=O)N4CC[C@@H](O)C4)c3C)cc2N=C(N)C1` [Example 19, 2-Amino-8-[3-[(3R)-3-hydroxypyrrolidin-1-yl]sulfonyl-2-methyl-phenyl]-N,N-dipropyl-3H-1-benzazepine-4-carboxamide], the half-maximal effective concentration (EC50) at human TLR8 was found to be 0.009 µM; at human TLR7, 14 µM.

For the molecule `CCCN(CCC)C(=O)C1=Cc2ccc(-c3cncc(S(=O)(=O)N4CCNCC4)c3)cc2N=C(N)C1` [Example 20, 2-Amino-8-(5-piperazin-1-ylsulfonyl-3-pyridyl)-N,N-dipropyl-3H-1-benzazepine-4-carboxamide], the concentration for a half-maximal effect (EC50) was found to be 0.017 µM on human TLR8 and 5 µM on human TLR7.

Regarding `CCCN(CCC)C(=O)C1=Cc2ccc(-c3cccc(S(=O)(=O)N4CCNCC4)c3)cc2N=C(N)C1` [Example 21, 2-Amino-8-(3-piperazin-1-ylsulfonylphenyl)-N,N-dipropyl-3H-1-benzazepine-4-carboxamide], the values for the EC50 on human TLR8 and at human TLR7 were 0.018 µM and > 100 µM, respectively.

As to `CCCN(CCC)C(=O)C1=Cc2ccc(-c3cncc(S(=O)(=O)N4CCC(N)C4)c3)cc2N=C(N)C1` (stereo not shown) [Example 22, 2-Amino-8-[5-(3-aminopyrrolidin-1-yl)sulfonyl-3-pyridyl]-N,N-dipropyl-3H-1-benzazepine-4-carboxamide], the EC50 on human TLR8 stood at 0.031 µM; at human TLR7, 17 µM.

Regarding `CCCN(CCC)C(=O)C1=Cc2ccc(-c3cc(C)cc(S(=O)(=O)N4CC[C@@H](O)C4)c3)cc2N=C(N)C1` [Example 23, 2-Amino-8-[3-[(3R)-3-hydroxypyrrolidin-1-yl]sulfonyl-5-methyl-phenyl]-N,N-dipropyl-3H-1-benzazepine-4-carboxamide], the concentration giving a half-maximal response (EC50) on human TLR8 turned out to be 0.006 µM; on human TLR7, 13 µM.
